Earlier results on ten molecules are cited in patent publication US7553503B2, “Phyto-nutraceutical synergistic composition for Parkinson's Disease” (priority 2006, dated 2009).

One data set concerns ischemic brain injury. As to conditions: transient focal ischemia.
Data set [1] deals with brain mitochondria and membranes.
Another data set concerns substantia nigra neurons. As to conditions: MPTP-induced.
For data set [2], the system named is bacterial resistance mechanism (multidrug pump). The note with it: in vitro, with 5'-methoxyhydnocarpin.
The test system of another data set is mouse brain. The note with it: pretreatment.
A further data set deals with dopamine D2 receptors (Homo sapiens, UniProt P14416).
For data set [3], the system named is alpha 2-adrenergic receptors.
Data set [4] concerns dopamine and DOPAC in striatum, DA in hypothalamus. The note with it: after administration.
Data set [5] deals with alpha 1-adrenergic receptors.
The target in another data set is dopamine D1 receptors (Homo sapiens, UniProt P21728).
The test system of data set [6] is patients with tardive dyskinesia. The note with it: especially tardive dyskinesia for 5 years or less.
The subject of data set [7] is HIV-1 viral long terminal repeat-directed gene expression.
Data set [8] deals with patients with early-stage Parkinson's disease.

dopamine D1 receptors, sequence (P21728 whole entry): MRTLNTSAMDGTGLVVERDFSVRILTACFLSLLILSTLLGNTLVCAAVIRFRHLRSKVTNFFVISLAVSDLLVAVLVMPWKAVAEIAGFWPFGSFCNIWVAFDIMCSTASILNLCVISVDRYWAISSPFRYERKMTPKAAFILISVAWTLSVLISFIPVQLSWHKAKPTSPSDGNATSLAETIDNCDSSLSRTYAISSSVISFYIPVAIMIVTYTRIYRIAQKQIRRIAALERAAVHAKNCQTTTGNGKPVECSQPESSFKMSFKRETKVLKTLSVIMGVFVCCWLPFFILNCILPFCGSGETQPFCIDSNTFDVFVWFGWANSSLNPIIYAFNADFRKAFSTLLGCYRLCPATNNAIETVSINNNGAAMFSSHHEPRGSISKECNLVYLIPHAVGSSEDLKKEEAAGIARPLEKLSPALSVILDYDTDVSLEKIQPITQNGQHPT
dopamine D2 receptors, sequence (P14416 whole entry): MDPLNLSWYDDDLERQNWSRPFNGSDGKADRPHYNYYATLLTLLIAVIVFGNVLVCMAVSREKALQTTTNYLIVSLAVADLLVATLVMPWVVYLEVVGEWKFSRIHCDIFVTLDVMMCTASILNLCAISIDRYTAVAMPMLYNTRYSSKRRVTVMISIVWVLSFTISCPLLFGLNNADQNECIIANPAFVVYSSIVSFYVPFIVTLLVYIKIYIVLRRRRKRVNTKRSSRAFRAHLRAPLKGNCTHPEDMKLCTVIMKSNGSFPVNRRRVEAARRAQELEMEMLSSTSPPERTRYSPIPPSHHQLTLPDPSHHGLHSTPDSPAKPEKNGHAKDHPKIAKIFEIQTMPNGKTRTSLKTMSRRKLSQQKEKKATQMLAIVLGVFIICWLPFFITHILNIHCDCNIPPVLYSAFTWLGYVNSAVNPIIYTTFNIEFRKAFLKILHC

As for `CC(C)(O)[C@@H]1CC[C@](C)([C@H]2[C@@H](O)C[C@@]3(C)[C@@H]4C[C@H](O[C@@H]5O[C@H](CO)[C@@H](O)[C@H](O)[C@H]5O)[C@H]5C(C)(C)[C@@H](O[C@@H]6OC[C@@H](O)[C@H](O)[C@H]6O)CC[C@@]56C[C@@]46CC[C@]23C)O1` [Astragaloside IV], the infarct volume entry in the data set on ischemic brain injury was “markedly and significantly reduced”.
As for `COc1cc2c(c(O)c1OC)-c1c(cc(OC)c(OC)c1OC)C[C@@H](C)[C@@H](C)C2` [Schisanhenol], in [1], the “peroxidative damages of brain mitochondria and membranes” value was “completely inhibited”.
Take `CC(C)=CCC[C@](C)(O[C@@H]1O[C@H](CO)[C@@H](O)[C@H](O)[C@H]1O)[C@H]1CC[C@]2(C)[C@@H]1[C@H](O)C[C@@H]1[C@@]3(C)CC[C@H](O)C(C)(C)[C@@H]3[C@@H](O[C@@H]3O[C@H](CO)[C@@H](O)[C@H](O)[C@H]3O)C[C@]12C` [Ginsenoside Rg1]: in the data set with substantia nigra neurons, the “substantia nigra neurons loss” value is reported as “protect against substantia nigra neurons loss”.
Take `COc1ccc2cc3[n+](cc2c1OC)CCc1cc2c(cc1-3)OCO2` [Berberine]: in data set [2], the “activity of Berberine alkaloids in the presence of 5'-MHC” value is listed as “strongly potentiated”.
As to `COc1cc2c(c(OC)c1OC)-c1c(cc(OC)c(OC)c1OC)C[C@](C)(O)[C@@H](C)C2` [Schizandrin], in [1], the “potency of protective action against oxidative stress relative to Schisanhenol” value is on record as “weaker than that of Schisanhenol”.
As to `COc1cc2c(c(OC)c1OC)-c1c(cc3c(c1OC)OCO3)CC(C)C(C)C2` (stereo not drawn) [Schizandrins B], the “extent of lipid peroxidation in brain tissue” value in the data set with mouse brain is given as “dose-dependent decrease”.
Turning to `COc1cc2c(c(OC)c1OC)-c1c(cc(OC)c(OC)c1OC)C[C@](C)(O)[C@@H](C)C2` [schizandrol A], at dopamine D2 receptors, the “affinity for dopamine D2 receptors” value is reported as “no affinity”. In addition, the “affinity for alpha 2-adrenergic receptors” value in [3] is given as “no affinity”. In the data set on serotonin receptors, the “affinity for serotonin receptors” value is on record as “no affinity”. Also, the “dopamine and its metabolite DOPAC (in striatum) and DA (in hypothalamus)” value in [4] is “Significant elevations”. Moreover, in data set [5], the “affinity for alpha 1-adrenergic receptors” value is given as “no affinity”. In addition, at dopamine D1 receptors, the “affinity for dopamine D1 receptors” value was “no affinity”.
For the molecule Vitamin E, the “severity of tardive dyskinesia” value in [6] is recorded as “appears to be effective”.
`CC1(C)CCC2=C(O1)c1ccccc1C(=O)C2=O` [Beta-lapachone]: in data set [7], the “inhibition of HIV-1 viral long terminal repeat-directed gene expression” value is “potent and selective inhibitor”.
In the case of `COC1=C(OC)C(=O)C(C/C=C(\C)CC/C=C(\C)CC/C=C(\C)CC/C=C(\C)CC/C=C(\C)CC/C=C(\C)CC/C=C(\C)CC/C=C(\C)CC/C=C(\C)CCC=C(C)C)=C(C)C1=O` [coenzyme Q10, Coenzyme Q10], the disease progression entry in data set [8] is recorded as “can slow disease progression”.
